Experimental data reported in patent US20230106592A1, “METHOD FOR TREATING CANCER USING A COMBINATION OF DNA DAMAGING AGENTS AND ATR INHIBITORS” (Vertex Pharmaceuticals Incorporated, priority 2015, published 2023).

Assay: Phase I trial, combination with carboplatin: adverse events and DLTs
Format: in vivo, human
Protocol: Pts with advanced solid tumors enrolled in 2 sequential parts.
In part A, single pt cohorts received a compound of Formula A-2 once weekly in 21-day cycles with 3+3 dose escalation cohorts being implemented if grade 2 drug-related adverse events (AEs) occurred. […] If a DLT was reported, the cohort was expanded to include 3 additional pts with subsequent dose escalation being permitted if no further DLTs occurred. Paired pre- and post-treatment biopsies from selected pts in part B were assessed for pCHK1 levels by immunohistochemistry. Models based on preclinical and clinical data were used to simulate hematologic toxicities and pCHK1 inhibition for pts treated with a compound of Formula A-2 and CP.

[1] = A-2 120 mg/m^2 + Carboplatin AUC4 (N = 3)
[2] = A-2 120 mg/m^2 + Carboplatin AUC5 (N = 3)
[3] = A-2 240 mg/m2 + Carboplatin AUC 5 (n = 3)
[4] = A-2 240 mg/m^2 + Carboplatin AUC5 (N = 3)
[5] = A-2 + Carboplatin, Total (N = 15)
[6] = A-2 + Carboplatin, Total (N = 19)

CNCc1ccc(-c2cc(-c3nc(-c4ccc(S(=O)(=O)C(C)C)cc4)cnc3N)on2)cc1 [Compound A-2]
Treatment related adverse event: Vomiting, All [1]: 0
Treatment related adverse event: Vomiting, ≥3 [1]: 0
Treatment related adverse event: Alopecia, All [2]: 0
Treatment related adverse event: Alopecia, ≥3 [2]: 0
Treatment related adverse event: Anemia, All [2]: 2
Treatment related adverse event: Anemia, ≥3 [2]: 0
Treatment related adverse event: Fatigue, All [2]: 1
Treatment related adverse event: Fatigue, ≥3 [2]: 0
Treatment related adverse event: Flushing, All [2]: 1
Treatment related adverse event: Flushing, ≥3 [2]: 1
Treatment related adverse event: Headache, All [2]: 0
Treatment related adverse event: Headache, ≥3 [2]: 0
Treatment related adverse event: Hypertension, All [2]: 0
Treatment related adverse event: Hypertension, ≥3 [2]: 0
Treatment related adverse event: Nausea, All [2]: 2
Treatment related adverse event: Nausea, ≥3 [2]: 0
Treatment related adverse event: Neuropathy peripheral, All [2]: 0
Treatment related adverse event: Neuropathy peripheral, ≥3 [2]: 0
Treatment related adverse event: Neutropenia, All [2]: 2
Treatment related adverse event: Neutropenia, ≥3 [2]: 1
Treatment related adverse event: Respiratory tract infection, All [2]: 0
Treatment related adverse event: Respiratory tract infection, ≥3 [2]: 0
Treatment related adverse event: Thrombocytopenia, All [2]: 1
Treatment related adverse event: Thrombocytopenia, ≥3 [2]: 0
Treatment related adverse event: Vomiting, All [2]: 0
Treatment related adverse event: Vomiting, ≥3 [2]: 0
Treatment related adverse event: Alopecia, All Grades [3]: 0 n (%)
Treatment related adverse event: Alopecia, Grade ≥ 3 [3]: 0 n (%)
Treatment related adverse event: Anemia, All Grades [3]: 3 (100) n (%)
Treatment related adverse event: Anemia, Grade ≥ 3 [3]: 0 n (%)
Treatment related adverse event: Any Event, All Grades [3]: 3 (100) n (%)
Treatment related adverse event: Fatigue, Grade ≥ 3 [3]: 0 n (%)
Treatment related adverse event: Flushing, All Grades [3]: 1 (33.3) n (%)
Treatment related adverse event: Flushing, Grade ≥ 3 [3]: 0 n (%)
Treatment related adverse event: Headache, Grade ≥ 3 [3]: 0 n (%)
Treatment related adverse event: Hypersensitivity, All Grades [3]: 1 (33.3) n (%)
Treatment related adverse event: Hypersensitivity, Grade ≥ 3 [3]: 0 n (%)
Treatment related adverse event: Infusion related reaction, All Grades [3]: 0 n (%)
Treatment related adverse event: Infusion related reaction, Grade ≥ 3 [3]: 0 n (%)
Treatment related adverse event: Nausea, All Grades [3]: 3 (100) n (%)
Treatment related adverse event: Nausea, Grade ≥ 3 [3]: 0 n (%)
Treatment related adverse event: Neuropathy peripheral, Grade ≥ 3 [3]: 0 n (%)
Treatment related adverse event: Neutropenia, All Grades [3]: 3 (100) n (%)
Treatment related adverse event: Pruritus, All Grades [3]: 1 (33.3) n (%)
Treatment related adverse event: Pruritus, Grade ≥ 3 [3]: 0 n (%)
Treatment related adverse event: Thrombocytopenia, All Grades [3]: 3 (100) n (%)
Treatment related adverse event: Thrombocytopenia, Grade ≥ 3 [3]: 1 (33.3) n (%)
Treatment related adverse event: Vomiting, Grade ≥ 3 [3]: 0 n (%)
Treatment related adverse event: Alopecia, All [4]: 0
Treatment related adverse event: Alopecia, ≥3 [4]: 0
Treatment related adverse event: Anemia, All [4]: 3
Treatment related adverse event: Anemia, ≥3 [4]: 0
Treatment related adverse event: Fatigue, All [4]: 2
Treatment related adverse event: Fatigue, ≥3 [4]: 0
Treatment related adverse event: Flushing, All [4]: 1
Treatment related adverse event: Flushing, ≥3 [4]: 0
Treatment related adverse event: Headache, All [4]: 2
Treatment related adverse event: Headache, ≥3 [4]: 0
Treatment related adverse event: Hypertension, All [4]: 1
Treatment related adverse event: Hypertension, ≥3 [4]: 1
Treatment related adverse event: Nausea, All [4]: 3
Treatment related adverse event: Nausea, ≥3 [4]: 0
Treatment related adverse event: Neuropathy peripheral, All [4]: 2
Treatment related adverse event: Neuropathy peripheral, ≥3 [4]: 0
Treatment related adverse event: Neutropenia, All [4]: 3
Treatment related adverse event: Neutropenia, ≥3 [4]: 2
Treatment related adverse event: Respiratory tract infection, All [4]: 1
Treatment related adverse event: Respiratory tract infection, ≥3 [4]: 1
Treatment related adverse event: Thrombocytopenia, All [4]: 3
Treatment related adverse event: Thrombocytopenia, ≥3 [4]: 1
Treatment related adverse event: Vomiting, All [4]: 2
Treatment related adverse event: Vomiting, ≥3 [4]: 0
Treatment related adverse event: Alopecia, All [5]: 2
Treatment related adverse event: Alopecia, ≥3 [5]: 0
Treatment related adverse event: Anemia, All [5]: 9
Treatment related adverse event: Anemia, ≥3 [5]: 0
Treatment related adverse event: Fatigue, All [5]: 6
Treatment related adverse event: Fatigue, ≥3 [5]: 0
Treatment related adverse event: Flushing, All [5]: 3
Treatment related adverse event: Flushing, ≥3 [5]: 1
Treatment related adverse event: Headache, All [5]: 2
Treatment related adverse event: Headache, ≥3 [5]: 0
Treatment related adverse event: Hypertension, All [5]: 1
Treatment related adverse event: Hypertension, ≥3 [5]: 1
Treatment related adverse event: Nausea, All [5]: 7
Treatment related adverse event: Nausea, ≥3 [5]: 0
Treatment related adverse event: Neuropathy peripheral, All [5]: 2
Treatment related adverse event: Neuropathy peripheral, ≥3 [5]: 0
Treatment related adverse event: Neutropenia, All [5]: 7
Treatment related adverse event: Neutropenia, ≥3 [5]: 4
Treatment related adverse event: Respiratory tract infection, All [5]: 1
Treatment related adverse event: Respiratory tract infection, ≥3 [5]: 1
Treatment related adverse event: Thrombocytopenia, All [5]: 7
Treatment related adverse event: Thrombocytopenia, ≥3 [5]: 1
Treatment related adverse event: Vomiting, All [5]: 2
Treatment related adverse event: Vomiting, ≥3 [5]: 0
Treatment related adverse event: Alopecia, Grade ≥ 3 [6]: 0 n (%)
Treatment related adverse event: Anemia, Grade ≥ 3 [6]: 0 n (%)
Treatment related adverse event: Any Event, Grade ≥ 3 [6]: 5 (26.3) n (%)
Treatment related adverse event: Fatigue, Grade ≥ 3 [6]: 0 n (%)
Treatment related adverse event: Flushing, Grade ≥ 3 [6]: 0 n (%)
Treatment related adverse event: Headache, Grade ≥ 3 [6]: 0 n (%)
Treatment related adverse event: Hypersensitivity, Grade ≥ 3 [6]: 1 (5.3) n (%)
Treatment related adverse event: Infusion related reaction, Grade ≥ 3 [6]: 0 n (%)
Treatment related adverse event: Nausea, Grade ≥ 3 [6]: 0 n (%)
Treatment related adverse event: Neuropathy peripheral, Grade ≥ 3 [6]: 0 n (%)
Treatment related adverse event: Neutropenia, All Grades [6]: 8 (42.1) n (%)
Treatment related adverse event: Neutropenia, Grade ≥ 3 [6]: 4 (21.1) n (%)
Treatment related adverse event: Pruritus, Grade ≥ 3 [6]: 0 n (%)
Treatment related adverse event: Thrombocytopenia, Grade ≥ 3 [6]: 1 (5.3) n (%)
Treatment related adverse event: Vomiting, Grade ≥ 3 [6]: 0 n (%)
DLTs (Cohort 1: A-2 240 mg/m^2 + Carboplatin AUC 5 mg/mL·min, 3/3 evaluable, febrile neutropenia): 1 (febrile
DLTs (Cohort 2: A-2 120 mg/m^2 + Carboplatin AUC 5 mg/mL·min, 3/3 evaluable, acute hypersensitivity): 1 (acute
DLTs (Cohort 3: A-2 120 mg/m^2 + Carboplatin AUC 4 mg/mL·min, 3/3 evaluable): 0
DLTs (Cohort 4: A-2 90 mg/m^2 + Carboplatin AUC 5 mg/mL·min, 10/10 evaluable, febrile neutropenia): 1 (febrile
Non-DLT G3-4 AE: neutropenia (DL1-2): 4
DLT: G4 neutropenia and fever (DL1: Compound A-2 240 mg/m^2 + CP AUC 5 mg/mL·min (n=3)): 1
Non-DLT G3-4 AE: thrombocytopenia (DL2): 1
DLT: G3 hypersensitivity (DL2: Compound A-2 120 mg/m^2 + CP AUC 5 mg/mL·min (n=3)): 1
G3-4 AEs (DL3-4 (120 mg/m^2 + CP AUC 4; 90 mg/m^2 + CP AUC 5)): No G3-4 AEs
Pts with DLT (Part B, carboplatin day 1, Compound A-2 days 2 and 9, 14 pts): 2 pts
Grade 3/4-related AEs (part B across the various DLs): 5 pts
DLT: grade 3 hypersensitivity (part B, dosage level B2): 1 pt
DLT: grade 3/4 neutropenia (part B, dosage levels B1 and B2): 2 pts
